Test results published in patent publication US10111847B2, “Compounds and methods for modulating vascular injury” (The Regents of the University of California, priority 2012, dated 2018).

Experiments:
Format in all cases: cell-based, human
VSMC = test: TNF-α-induced superoxide production (DHE) in VSMC (RvD1); conditions: 10 and 100 nM; TNF-α 10 ng/ml 4 hours
Protocol: RvD1. Cells are seeded and grown on chamber slides at a density of 10,000 cells per chamber for 2 days, followed by treatment with 10 ng/ml TNF-α with or without RvD1 (10 and 100 nM) in serum-free media for 4 hours. After incubation cells are incubated with DHE (5 μmol/L, Invitrogen) in PBS for 30 minutes at 37° C. in a humidified chamber protected from light. DAPI nuclear counter staining is utilized. For frozen section 30-μm-thick sections are incubated with DHE (10 μmol/L) in PBS for 30 minutes at the same condition described above. Fluorescence was detected with TRITC filter allowing the detection of the DHE emission wavelength of 590-620 nm. The fluorescence lamp gain is standardized for all images and analyses. Fluorescence quantitation is performed using ImageJ analysis software (National Institute of Health, Bethesda, Md.). For VSMC the fluorescence intensity is determined for the DHE-stained control cells (no treatment control) from each experimental group and then individual treated cells from the same group are normalized to the corresponding value. For frozen sections the fluorescence intensity is determined for the DHE-stained control vessels (uninjured abdominal aorta) from each experimental group and then individual treated vessels from the same group are normalized to the corresponding value. […]

ICAM-1, IL-1β, and IL-1α = test: Gene expression in VSMC in presence or absence of pertussis toxin (PTX); conditions: RvD2 10 nM; PTX 100 ng/ml; TNF-α
Protocol: Cells are plated onto 6-well plates at 100% confluency in DMEM plus 10% FBS and allowed to attached overnight. Cells are then made quiescent by placing in serum-free media for 48-72 hours prior to start of experiments. Cells are treated with or without RvD1 or RvD2 at the indicated concentrations for one hour followed by co-incubation with cytokine (TNF-α 10 ng/ml) for up to 18 hours. In a separate set of experiments to examine the role of G-protein receptors, VSMCs are exposed to TNF-α and RvD2 (10 nM) as described above, in the presence or absence of pertussis toxin (PTX 100 ng/ml). Total RNA from rabbit sample or cells is isolated with PureLink RNA Mini kit (Ambion Life Technologies, Carlsbad, Calif.) with RNase-free DNase treatment according to manufacturer's protocol. One microgram of total RNA (from either VSMC or rabbit tissue) is used to generate cDNA using High Capacity cDNA Reverse Transcription Kit (Applied Biosystems, Foster City, Calif.) for subsequent RT-PCR reactions. Sybrgreen Amplified DNA is detected by incorporation SYBR Green (Qiagen, Germantown, Md.). […]
FIG. 9: Effects of RvD2 on gene expression in VSMC are sensitive to pertussis toxin (PTX). […] RNA was harvested and analyzed for the expression of ICAM-1, IL-1β, and IL-1α by qPCR (n=3, results are mean±SEM, **P<0.01, *P<0.05, one-way ANOVA followed by Bonferroni's post hoc test).

[1] = test system: Stat1, C/EBP, SMAD, SATB1, EGR; test: Transcription factor multiplex array in TNF-α-stimulated VSMC; conditions: 10 nM; TNF-α 10 ng/ml 18 hours
Protocol: Cells are plated onto 96-well plates and treated with 10 ng/ml TNF-α in the presence or absence of 10 nM RvD2 for 18 hours and then nuclear extracts are prepared. Transcription factor profiling is performed using a multiplex array according to the manufacturer's instructions (Signosis Inc., Sunnyvale, Calif.).
FIG. 11: RvD1 and RvD2 modulate activity of multiple transcription factors in TNF-α-stimulated VSMC. VSMCs were treated with TNF-α (10 ng/ml) for 18 hours and nuclear extracts were prepared. Transcription factor profiling was performed using a multiplex array.

Row | SMILES | TNF-α-induced superoxide production in VSMC (VSMC) | effect of pertussis toxin on inhibition of ICAM-1, IL-1β, and IL-1α gene expression (ICAM-1, IL-1β, and IL-1α) | transcription factor activity (Stat1, C/EBP, SMAD, SATB1, EGR) vs TNF-α-stimulated controls [1]
1 | CC/C=C\C[C@H](O)/C=C/C=C\C=C\C=C\[C@@H](O)[C@@H](O)C/C=C\CCC(=O)O [RvD1, Resolvin D1] | significantly reduced |  | 
2 | CC/C=C\C[C@H](O)[C@H](O)/C=C/C=C/C=C\C=C\[C@@H](O)C/C=C\CCC(=O)O [RvD2, resolvin D2] |  | abrogation of the inhibitory effects | significantly downregulated
